In brackets after ≈: the same amount, converted by molar mass.
How the values were obtained:
Experiment in all cases: MIC, broth microdilution in Meuller-Hinton broth (NCCLS)
[1] = test system: 533 S. epidermidis; type: cell-based, Staphylococus epidermidis; settings: clinical isolate
Method in brief: (§1)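 Clinical isolates, sensitive or resistant to natural glycopeptides, tested by NCCLS broth microdilution in Mueller-Hinton broth. MIC reported in μg/ml.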

[2] = test system: 602 S. haemolyticus; type: cell-based, Staphylococus haemolyticus; settings: clinical isolate
Method in brief: as §1

[3] = test system: 3797 S. aureus (GISA); type: cell-based, Staphylococus aureus; settings: glycopeptides-intermediate clinical isolate
Method in brief: as §1

[4] = test system: 3798 S. aureus (GISA); type: cell-based, Staphylococus aureus; settings: glycopeptides-intermediate clinical isolate
Method in brief: as §1

[5] = test system: 568 E. faecium (GSE); type: cell-based; settings: glycopeptide-sensitive clinical isolate
Method in brief: as §1

[6] = test system: 569 E. faecium (GRE); type: cell-based; settings: glycopeptide-resistant clinical isolate
Method in brief: as §1

[7] = test system: 559 E. faecalis (GSE); type: cell-based, Enterococcus faecalis; settings: glycopeptide-sensitive clinical isolate
Method in brief: as §1

[8] = test system: 560 E. faecalis (GRE); type: cell-based, Enterococcus faecalis; settings: glycopeptide-resistant clinical isolate
Method in brief: as §1

| SMILES | MIC 533 S. epidermidis [1] [µg/mL] | MIC 602 S. haemolyticus [2] [µg/mL] | MIC 3797 S. aureus (GISA) [3] [µg/mL] | MIC 3798 S. aureus (GISA) [4] [µg/mL] | MIC 568 E. faecium (GSE) [5] [µg/mL] | MIC 569 E. faecium (GRE) [6] [µg/mL] | MIC 559 E. faecalis (GSE) [7] [µg/mL] | MIC 560 E. faecalis (GRE) [8] [µg/mL] |
| --- | --- | --- | --- | --- | --- | --- | --- | --- |
| CCCCc1ccc(CNCC(=O)NC2(C)CC(OC3C(Oc4c5cc6cc4Oc4ccc(cc4Cl)C(O)C(NC(=O)C(CC(C)C)NC)C(=O)NC(CC(N)=O)C(=O)NC6C(=O)NC4C(=O)NC(C(=O)NC(C(=O)NC6C7CC8CC(C7)CC6C8)c6cc(O)cc(O)c6-c6cc4ccc6O)C(OC4CC(C)(N)C(O)C(C)O4)c4ccc(cc4)O5)OC(CO)C(O)C3O)OC(C)C2O)cc1 (stereo not drawn) [Compound 263] | 8 (≈ 4.22 µM) | 8 (≈ 4.22 µM) | 16 (≈ 8.45 µM) | 16 (≈ 8.45 µM) | 8 (≈ 4.22 µM) | 8 (≈ 4.22 µM) | 8 (≈ 4.22 µM) | 8 (≈ 4.22 µM) |
| CCCCc1ccc(CNCC(=O)NC2(C)CC(OC3C(Oc4c5cc6cc4Oc4ccc(cc4Cl)C(O)C(NC(=O)C(CC(C)C)NC)C(=O)NC(CC(N)=O)C(=O)NC6C(=O)NC4C(=O)NC(C(=O)NC(C(=O)NC(C)C67CC8CC(CC(C8)C6)C7)c6cc(O)cc(O)c6-c6cc4ccc6O)C(OC4CC(C)(N)C(O)C(C)O4)c4ccc(cc4)O5)OC(CO)C(O)C3O)OC(C)C2O)cc1 (stereo not drawn) [Compound 264] | 4 (≈ 2.08 µM) | 8 (≈ 4.16 µM) | 8 (≈ 4.16 µM) | 16 (≈ 8.32 µM) | 4 (≈ 2.08 µM) | 8 (≈ 4.16 µM) | 4 (≈ 2.08 µM) | 8 (≈ 4.16 µM) |
| CCCCc1ccc(CNCC(=O)NC2(C)CC(OC3C(Oc4c5cc6cc4Oc4ccc(cc4Cl)C(O)C4NC(=O)C(NC(=O)C6NC(=O)C(CC(N)=O)NC(=O)C(NC(=O)C(CC(C)C)NC)C(O)c6ccc(c(Cl)c6)O5)c5ccc(O)c(c5)-c5c(O)cc(O)cc5C(C(=O)NCc5ccc(F)cc5)NC4=O)OC(CO)C(O)C3O)OC(C)C2O)cc1 (stereo not drawn) [Compound 276] | 0.5 (≈ 0.284 µM) | 2 (≈ 1.14 µM) | 2 (≈ 1.14 µM) | 2 (≈ 1.14 µM) | 2 (≈ 1.14 µM) | 16 (≈ 9.09 µM) | 4 (≈ 2.27 µM) | 16 (≈ 9.09 µM) |
| CCCCCCCCOc1ccc(CNCC(=O)NC2(C)CC(OC3C(Oc4c5cc6cc4Oc4ccc(cc4Cl)C(O)C4NC(=O)C(NC(=O)C6NC(=O)C(CC(N)=O)NC(=O)C(NC(=O)C(CC(C)C)NC)C(O)c6ccc(c(Cl)c6)O5)c5ccc(O)c(c5)-c5c(O)cc(O)cc5C(C(=O)NCc5ccc(F)cc5)NC4=O)OC(CO)C(O)C3O)OC(C)C2O)cc1 (stereo not drawn) [Compound 277] | 4 (≈ 2.18 µM) | 8 (≈ 4.37 µM) | 8 (≈ 4.37 µM) | 4 (≈ 2.18 µM) | 4 (≈ 2.18 µM) | 8 (≈ 4.37 µM) | 4 (≈ 2.18 µM) | 8 (≈ 4.37 µM) |
| CNC(CC(C)C)C(=O)NC1C(=O)NC(CC(N)=O)C(=O)NC2C(=O)NC3C(=O)NC(C(=O)NC(C(=O)O)c4cc(O)cc(O)c4-c4cc3ccc4O)C(OC3CC(C)(N)C(O)C(C)O3)c3ccc(cc3)Oc3cc2cc(c3OC2OC(CO)C(O)C(O)C2OC2CC(C)(NC(=O)CNCc3cc4ccccc4c4ccccc34)C(O)C(C)O2)Oc2ccc(cc2Cl)C1O (stereo not drawn) [Compound 287] | 2 (≈ 1.11 µM) | 2 (≈ 1.11 µM) | 16 (≈ 8.86 µM) | 16 (≈ 8.86 µM) | 2 (≈ 1.11 µM) | >64 | 2 (≈ 1.11 µM) | >64 |
| CNC(CC(C)C)C(=O)NC1C(=O)NC(CC(N)=O)C(=O)NC2C(=O)NC3C(=O)NC(C(=O)NC(C(=O)NCc4ccc(F)cc4)c4cc(O)cc(O)c4-c4cc3ccc4O)C(O)c3ccc(c(Cl)c3)Oc3cc2cc(c3OC2OC(CO)C(O)C(O)C2OC2CC(C)(N)C(O)C(C)O2)Oc2ccc(cc2Cl)C1O (stereo not drawn) [Compound 288] | 2 (≈ 1.29 µM) | 1 (≈ 0.643 µM) | 4 (≈ 2.57 µM) | 4 (≈ 2.57 µM) | 0.13 (≈ 0.0835 µM) | >64 | 0.13 (≈ 0.0835 µM) | >64 |
